Experimental data: US20250197864A1, “LNCRNA TRANSCRIPTS IN MELANOMAGENESIS” (The Regents of the University of California, priority 2021, published 2025)

Test system: gene expression in D04 melanoma cells
Assay: RNA-Seq differential expression analysis (DESeq2)
Assay type: cell-based, human
Method: Total RNA was isolated using the RNeasy mini Kit (QIAGEN) following the manufacturer's protocol. Quality check for extracted RNA was done using 2100 Bioanalyzer (Agilent Technologies, USA) or Tapestation System (Agilent Technologies, USA). […] For samples used for identification of MAPK-responsive lncRNAs, paired-end, 101-bp sequencing was performed by Centrillion Genomic Services (Centrillion Biosciences, USA) on an Illumina HiSeq 2000. For DE gene analysis of ASO-transfected D04 samples, paired-end, 2×150-bp sequencing was performed by Genewiz (USA) on a Illumina HiSeq.
Sequence reads were aligned to the human genome (hg19) using TopHat (Version 2.0.11).
Differential expression (DE) analysis was done using DESeq2. Differentially expressed genes were defined by more than 1.5-fold changes (log 2 >0.58 or <−0.58) in expression with FDR<0.05. GO term analysis was done using DAVID Functional Annotation Clustering analysis.
To examine the biomolecular changes upon TRASH-inhibition in melanoma, D04 cells were treated with TRASH-ASOs (SEQ ID NO:15) and Control-ASOs and RNA was extracted and used for RNA-Seq. […] These GO terms consisted of genes encoding growth factors, tyrosine kinases, G protein coupled receptor subunits, and collagen subunits. Scatter plot diagram showing differential gene expression after TRASH-ASO treatment compared to Control-ASO treatment. (cut-off for significance was adjusted p-value <0.05). Data was obtained from RNA-Seq of D04 melanoma cells, treatment period was three days. (FIG. 5c)

GACTGGAGATAATTAA (gapmer, pattern not given here) [SEQ ID NO: 15, GapmeR ASO targeting AC004540.4 (TRASH), exon region of both isoforms; used for in vitro experiments]
log2FoldChange (PPM1L (ENSG00000163590)): −0.7017 | log2FoldChange (PRICKLE2 (ENSG00000163637)): −0.6639 | log2FoldChange (PRR5L (ENSG00000135362)): −0.6328 | log2FoldChange (PTPRN2 (ENSG00000155093)): 2.844 | log2FoldChange (PTPRR (ENSG00000153233)): 1.4591 | log2FoldChange (PURPL (ENSG00000250337)): −0.6494 | log2FoldChange (PYROXD2 (ENSG00000119943)): −0.6602 | log2FoldChange (RAB11FIP3 (ENSG00000090565)): −0.5869 | log2FoldChange (RAB26 (ENSG00000167964)): −0.6129 | log2FoldChange (RAB39B (ENSG00000155961)): 2.06 | log2FoldChange (RASEF (ENSG00000165105)): 1.674 | log2FoldChange (RASL10B (ENSG00000270885)): −0.6526 | log2FoldChange (RBMS3 (ENSG00000144642)): −0.6061 | log2FoldChange (RFTN2 (ENSG00000162944)): −0.6802 | log2FoldChange (RGS4 (ENSG00000117152)): 1.366 | log2FoldChange (RGS5 (ENSG00000143248)): −0.6262 | log2FoldChange (RINL (ENSG00000187994)): 1.242 | log2FoldChange (ROBO4 (ENSG00000154133)): 2.692 | log2FoldChange (RPLPOP2 (ENSG00000243742)): 1.744 | log2FoldChange (RUNDC3A (ENSG00000108309)): 1.302 | log2FoldChange (S1PR2 (ENSG00000267534)): −0.6769 | log2FoldChange (S100A3 (ENSG00000188015)): −0.6246 | log2FoldChange (SAMD5 (ENSG00000203727)): −0.6969 | log2FoldChange (SAMD9L (ENSG00000177409)): −0.5978 | log2FoldChange (SBSN (ENSG00000189001)): 1.621 | log2FoldChange (SBSPON (ENSG00000164764)): −0.705 | log2FoldChange (SCG2 (ENSG00000171951)): −0.6659 | log2FoldChange (SCG5 (ENSG00000166922)): 1.621 | log2FoldChange (SCN1B (ENSG00000105711)): −0.608 | log2FoldChange (SCN4A (ENSG00000007314)): 2.301 | log2FoldChange (SDCCAG8 (ENSG00000054282)): −0.7066 | log2FoldChange (SERPINB7 (ENSG00000166396)): 1.415 | log2FoldChange (SERPINI2 (ENSG00000114204)): 2.645 | log2FoldChange (SH2D1B (ENSG00000198574)): 1.495 | log2FoldChange (SHROOM4 (ENSG00000158352)): −0.6228 | log2FoldChange (SIGLEC15 (ENSG00000197046)): 2.101 | log2FoldChange (SIL1 (ENSG00000120725)): −0.6521 | log2FoldChange (SLAMF7 (ENSG00000026751)): 2.821 | log2FoldChange (SLAMF9 (ENSG00000162723)): 2.487 | log2FoldChange (SLC45A2 (ENSG00000164175)): −0.6697 | log2FoldChange (SLCO4C1 (ENSG00000173930)): −0.6425 | log2FoldChange (SOCS2 (ENSG00000120833)): −0.5921 | log2FoldChange (SOCS3 (ENSG00000184557)): −0.6206 | log2FoldChange (SOX2 (ENSG00000181449)): −0.7006 | log2FoldChange (SPANXC (ENSG00000198573)): 1.331 | log2FoldChange (SPINK1 (ENSG00000164266)): 3.07 | log2FoldChange (SPINT2 (ENSG00000167642)): 2.192 | log2FoldChange (SPRY2 (ENSG00000136158)): −0.6059 | log2FoldChange (SPRY4 (ENSG00000187678)): −0.6537 | log2FoldChange (ST6GALNAC2 (ENSG00000070731)): −0.6963 | log2FoldChange (ST6GALNAC5 (ENSG00000117069)): −0.6397 | log2FoldChange (STRA6 (ENSG00000137868)): −0.6369 | log2FoldChange (STX17-AS1 (ENSG00000255145)): 1.8172 | log2FoldChange (SULT1A1 (ENSG00000196502)): −0.7045 | log2FoldChange (SYNGR1 (ENSG00000100321)): −0.6288 | log2FoldChange (SYT11 (ENSG00000132718)): 1.326 | log2FoldChange (SYT16 (ENSG00000139973)): 1.62 | log2FoldChange (TEK (ENSG00000120156)): −0.6347 | log2FoldChange (TENM1 (ENSG00000009694)): −0.7059 | log2FoldChange (TFAP2E (ENSG00000116819)): −0.6597 | log2FoldChange (TGFB3 (ENSG00000119699)): −0.6408 | log2FoldChange (TGFBR3 (ENSG00000069702)): −0.639 | log2FoldChange (THSD4 (ENSG00000187720)): −0.6139 | log2FoldChange (TINAGL1 (ENSG00000142910)): 1.287 | log2FoldChange (TM4SF1 (ENSG00000169908)): 1.389 | log2FoldChange (TMC8 (ENSG00000167895)): 1.259 | log2FoldChange (TMEM117 (ENSG00000139173)): −0.6405 | log2FoldChange (TMEM135 (ENSG00000166575)): −0.6788 | log2FoldChange (TNFRSF11B (ENSG00000164761)): −0.5845 | log2FoldChange (TNFSF8 (ENSG00000106952)): 1.66 | log2FoldChange (TNFSF10 (ENSG00000121858)): −0.6562 | log2FoldChange (TNFSF11 (ENSG00000120659)): −0.6111 | log2FoldChange (TOM1L2 (ENSG00000175662)): −0.6126 | log2FoldChange (TRIB2 (ENSG00000071575)): −0.6666 | log2FoldChange (TRIML2 (ENSG00000179046)): 2.081 | log2FoldChange (TSPAN9 (ENSG00000011105)): −0.6484 | log2FoldChange (VIPR2 (ENSG00000106018)): 1.91 | log2FoldChange (VWA1 (ENSG00000179403)): −0.6674 | log2FoldChange (VWCE (ENSG00000167992)): 1.639 | log2FoldChange (XAF1 (ENSG00000132530)): −0.6048 | log2FoldChange (XG (ENSG00000124343)): 2.256 | log2FoldChange (ZC3H6 (ENSG00000188177)): −0.6449 | log2FoldChange (ZDHHC11 (ENSG00000188818)): 1.322 | log2FoldChange (ZFYVE28 (ENSG00000159733)): −0.6436 | log2FoldChange (ZHX2 (ENSG00000178764)): −0.5891 | log2FoldChange (ZNF165 (ENSG00000197279)): 1.226 | log2FoldChange (ZNF185 (ENSG00000147394)): 1.367 | log2FoldChange (ZSCAN31 (ENSG00000235109)): −0.6972
